Test results: PubChem BioAssay AID248 (DTP/NCI, 2004)
“And” between values parts separate entries of the source, which are not always exact repeats. Identical values can stand only once. Toxic doses and inconclusive results are not listed. Rule as the data show it: active = T/C of 150% or more; inactive = T/C below 125%.

Test system: L1210 leukemia ip in BDF1 mice, survival T/C
Assay: NCI In Vivo Anticancer Drug Screen. Data for tumor model L1210 Leukemia (intraperitoneal) in B6D2F1 (BDF1) mice
Settings: endpoint: mean survival time, higher = longer survival
Method in brief: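 Ratio derived from survival: compound-dosed mice over vehicle-dosed mice, all bearing a transplantable tumor.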

[1] = dose: 100.0 mg/kg/injection, schedule: Q04DX003 (ip), vehicle: Klucel (hydroxypropylcellulose) (HPC)
[2] = dose: 200.0 mg/kg/injection, schedule: Q04DX003 (ip), vehicle: Klucel (hydroxypropylcellulose) (HPC)
[3] = dose: 400.0 mg/kg/injection, schedule: Q04DX003 (ip), vehicle: Klucel (hydroxypropylcellulose) (HPC)
[4] = dose: 100.0 mg/kg/injection, schedule: Q01DX001 (ip), vehicle: saline
[5] = dose: 200.0 mg/kg/injection, schedule: Q01DX001 (ip), vehicle: saline
[6] = dose: 400.0 mg/kg/injection, schedule: Q01DX001 (ip), vehicle: saline
[7] = dose: 100.0 mg/kg/injection, schedule: Q01DX001 (ip), vehicle: carboxymethylcellulose (CMC)
[8] = dose: 200.0 mg/kg/injection, schedule: Q01DX001 (ip), vehicle: carboxymethylcellulose (CMC)
[9] = dose: 100.0 mg/kg/injection, schedule: Q01DX009 (ip), vehicle: Klucel (hydroxypropylcellulose) (HPC)
[10] = dose: 200.0 mg/kg/injection, schedule: Q01DX009 (ip), vehicle: Klucel (hydroxypropylcellulose) (HPC)
[11] = dose: 400.0 mg/kg/injection, schedule: Q01DX009 (ip), vehicle: Klucel (hydroxypropylcellulose) (HPC)
[12] = dose: 50.0 mg/kg/injection, schedule: Q01DX009 (ip), vehicle: saline with Tween-80
[13] = dose: 100.0 mg/kg/injection, schedule: Q01DX009 (ip), vehicle: saline with Tween-80
[14] = dose: 200.0 mg/kg/injection, schedule: Q01DX009 (ip), vehicle: saline with Tween-80
[15] = dose: 100.0 mg/kg/injection, schedule: Q01DX001 (ip), vehicle: saline with Tween-80
[16] = dose: 200.0 mg/kg/injection, schedule: Q01DX001 (ip), vehicle: saline with Tween-80

Measured: T/C

CCc1nc(N)nc(N)c1-c1ccc([N+](=O)[O-])cc1O
inactive: [1] 92 % of control | [2] 93 % of control | [3] 89 % of control

CCN(CC)CCNCCCS(=O)(=O)c1ccc(NC(C)=O)cc1
inactive: [4] 97 % of control | [5] 97 % of control | [6] 97 % of control

CCOC(=O)c1ccc(OC(=O)Nc2ccc(F)cc2)cc1
inactive: dose: 50.0 mg/kg/injection, schedule: Q01DX001 (ip), vehicle: carboxymethylcellulose (CMC) 106 % of control | dose: 50.0 mg/kg/injection, schedule: Q01DX009 (ip), vehicle: carboxymethylcellulose (CMC) 96 % of control and 105 % of control | dose: 50.0 mg/kg/injection, schedule: Q04DX002 (ip), vehicle: carboxymethylcellulose (CMC) 95 % of control and 103 % of control | [7] 104 % of control | dose: 100.0 mg/kg/injection, schedule: Q01DX009 (ip), vehicle: carboxymethylcellulose (CMC) 95 % of control and 99 % of control | dose: 100.0 mg/kg/injection, schedule: Q04DX002 (ip), vehicle: carboxymethylcellulose (CMC) 95 % of control and 107 % of control | [8] 101 % of control | dose: 200.0 mg/kg/injection, schedule: Q01DX009 (ip), vehicle: carboxymethylcellulose (CMC) 94 % of control | dose: 200.0 mg/kg/injection, schedule: Q04DX002 (ip), vehicle: carboxymethylcellulose (CMC) 103 % of control and 88 % of control

C[N+]1=CN(c2ccc(Cl)cc2)Cc2cc(Cl)ccc21
inactive: [9] 95 % of control | [1] 105 % of control | [10] 106 % of control | [2] 91 % of control | [11] 107 % of control | [3] 93 % of control

Cc1ccc(S(=O)(=O)NC(=O)c2c3ccccc3cc3ccccc23)cc1
inactive: dose: 100.0 mg/kg/injection, schedule: Q01DX001 (ip), vehicle: acetone 104 % of control | dose: 200.0 mg/kg/injection, schedule: Q01DX001 (ip), vehicle: acetone 104 % of control | dose: 400.0 mg/kg/injection, schedule: Q01DX001 (ip), vehicle: acetone 96 % of control

CNC(=O)Oc1cccc(C)c1
inactive: dose: 25.0 mg/kg/injection, schedule: Q01DX009 (ip), vehicle: saline with Tween-80 97 % of control | [12] 94 % of control

O=C1OC(CO)C(OC2OC(CO)C(O)C(O)C2O)C(O)C1O (configuration not stated)
inactive: dose: 100.0 mg/kg/injection, schedule: Q01DX009 (ip), vehicle: saline 97 % of control | dose: 200.0 mg/kg/injection, schedule: Q01DX009 (ip), vehicle: saline 98 % of control | dose: 400.0 mg/kg/injection, schedule: Q01DX009 (ip), vehicle: saline 97 % of control

N#CC(OC(OC(C#N)c1ccccc1)c1ccccc1)c1ccccc1 (configuration not stated)
inactive: [12] 93 % of control | [13] 93 % of control | [14] 90 % of control

O=C(O)c1ccc(/C=N/NC(=O)c2cccc3ccccc23)cc1
inactive: [4] 87 % of control | [5] 87 % of control

O=C1OC(/C=C/c2ccccc2)=NC/1=C\c1ccccc1O
inactive: dose: 100.0 mg/kg/injection, schedule: Q04DX002 (ip), vehicle: saline with Tween-80 92 % of control | dose: 200.0 mg/kg/injection, schedule: Q04DX002 (ip), vehicle: saline with Tween-80 92 % of control | dose: 400.0 mg/kg/injection, schedule: Q04DX002 (ip), vehicle: saline with Tween-80 89 % of control

O=C(c1ccco1)c1cc(Cl)c(Cl)cc1Cl
inactive: [15] 100 % of control | [16] 95 % of control | dose: 400.0 mg/kg/injection, schedule: Q01DX001 (ip), vehicle: saline with Tween-80 98 % of control

O=S(=O)(Nc1ccccc1)c1ccccc1C=C(c1ccccc1)c1ccccc1
inactive: dose: 100.0 mg/kg/injection, schedule: Q01DX001 (ip), vehicle: steriod suspending solution 105 % of control | dose: 200.0 mg/kg/injection, schedule: Q01DX001 (ip), vehicle: steriod suspending solution 86 % of control | dose: 400.0 mg/kg/injection, schedule: Q01DX001 (ip), vehicle: steriod suspending solution 97 % of control

COC(=O)Cc1ccccc1C(=O)OC
inactive: dose: 100.0 mg/kg/injection, schedule: Q04DX003 (ip), vehicle: saline with Tween-80 107 % of control | dose: 200.0 mg/kg/injection, schedule: Q04DX003 (ip), vehicle: saline with Tween-80 96 % of control | dose: 400.0 mg/kg/injection, schedule: Q04DX003 (ip), vehicle: saline with Tween-80 100 % of control

CC(=O)Nc1c(Cl)cc2c(c1Cl)Cc1cc(C#N)ccc1-2
inactive: [7] 102 % of control | [8] 102 % of control | dose: 400.0 mg/kg/injection, schedule: Q01DX001 (ip), vehicle: carboxymethylcellulose (CMC) 98 % of control

COC(=O)N/N=C/c1cccnc1
inactive: [9] 103 % of control | [10] 103 % of control | [11] 111 % of control

CC1=NN(c2ccc(S(=O)(=O)O)cc2)C(=O)/C1=C/C(C#N)C#N
inactive: dose: 50.0 mg/kg/injection, schedule: Q01DX001 (ip), vehicle: saline 105 % of control | [4] 98 % of control | [1] 92 % of control | [5] 108 % of control | [2] 105 % of control | [6] 108 % of control | [3] 94 % of control

CC(C)(CBr)COC(=O)Nc1ccc2ccccc2c1
inactive: [12] 95 % of control | [13] 95 % of control | [14] 88 % of control

COc1cc2ccc(C(C)NCC#N)cc2cc1OC (configuration not stated)
inactive: [9] 97 % of control | [1] 88 % of control | [10] 101 % of control | [2] 93 % of control | [3] 106 % of control

Nc1ccnc(OCc2ccccc2)n1
inactive: [15] 100 % of control | [16] 100 % of control

CCCCCCC1CCC(C(=O)O)CC1 (configuration not stated)
inactive: dose: 100.0 mg/kg/injection, schedule: Q01DX001 (ip), vehicle: Klucel (hydroxypropylcellulose) (HPC) 96 % of control | [9] 98 % of control | dose: 200.0 mg/kg/injection, schedule: Q01DX001 (ip), vehicle: Klucel (hydroxypropylcellulose) (HPC) 97 % of control | [10] 98 % of control | dose: 400.0 mg/kg/injection, schedule: Q01DX001 (ip), vehicle: Klucel (hydroxypropylcellulose) (HPC) 97 % of control | [11] 89 % of control

Nc1nc(N)c(CCCCc2ccccc2)c(/C=C/c2ccc([N+](=O)[O-])cc2)n1
inactive: dose: 100.0 mg/kg/injection, schedule: Q01DX001 (ip), vehicle: gum acacia 92 % of control | dose: 200.0 mg/kg/injection, schedule: Q01DX001 (ip), vehicle: gum acacia 94 % of control | dose: 400.0 mg/kg/injection, schedule: Q01DX001 (ip), vehicle: gum acacia 95 % of control

CC(C)(c1ccc(OCCO)cc1)c1ccc(OCCO)cc1
inactive: [13] 97 % of control | [14] 98 % of control | dose: 400.0 mg/kg/injection, schedule: Q01DX009 (ip), vehicle: saline with Tween-80 93 % of control

CN(CCCl)C1c2ccccc2-c2ccccc21
inactive: dose: 25.0 mg/kg/injection, schedule: Q04DX002 (ip), vehicle: saline 100 % of control | dose: 50.0 mg/kg/injection, schedule: Q04DX002 (ip), vehicle: saline 100 % of control | dose: 100.0 mg/kg/injection, schedule: Q04DX002 (ip), vehicle: saline 106 % of control and 117 % of control

Cc1ccc(S(=O)(=O)N=Nc2c(O)[nH]c3ccccc23)cc1
inactive: dose: 75.0 mg/kg/injection, schedule: Q04DX002 (ip), vehicle: gum acacia 93 % of control | dose: 150.0 mg/kg/injection, schedule: Q04DX002 (ip), vehicle: gum acacia 93 % of control | dose: 300.0 mg/kg/injection, schedule: Q04DX002 (ip), vehicle: gum acacia 100 % of control
